Assay results reported in PubChem BioAssay AID449764 (Southern Research Specialized Biocontainment Screening …, 2010).

System: Mycobacterium tuberculosis H37Rv growth inhibition, no glycerol
Test: Mycobacterium tuberculosis H37Rv growth inhibition, no glycerol, confirmatory dose response (AID 449764);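 further: growth read after 7 days of incubation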
Conditions: for IC90: measured here: IC90 growth inhibition

SMILES | IC50 | IC90
CCOC(=O)CSc1snnc1-c1ccccc1 | 29.4 µM | > 100 µM
CCCCCCN=C1CC(C)(C)CC(=O)/C1=C(/O)CCC | 71 µM | > 100 µM
C[Se]C[C@@H](N)C(=O)O | 89.4 µM | 95.7 µM
COc1ccc(C[C@H]2CN3C(=NC[C@H]3Cc3ccccc3)N2CCNC(=O)CCC2CCCCC2)cc1 | 22.4 µM | 24.3 µM
CC1=C(C)C(=O)C(CCCCC#CCCCC#CCO)=C(C)C1=O | 24 µM | 26.2 µM
CCOc1cc(/C=C2\COc3ccccc3C2=O)cc(Br)c1OCC(=O)N(C)C | 6.73 µM | 11.5 µM
c1nc2n(n1)C1=C(CCCC1)C1(CCCCC1)N2 | 29.8 µM | 44.3 µM
CC(C)=CCOc1ccc([C@@H]2COc3c(ccc4c3C=CC(C)(C)O4)C2)c(O)c1 | 25.4 µM | 43 µM
CC(CC(=O)Nc1ccc(Cl)c([N+](=O)[O-])c1)c1ccccc1 (centres undefined) | 18 µM | 29.4 µM
CCCCCCCNC1=CC(=O)CC(c2ccccc2)C1 (centres undefined) | 39.7 µM | 61.3 µM
Cc1cccc(C(=O)NNC(=S)NC(=O)c2ccccc2)c1 | 1.56 µM | 2.69 µM
COc1ccc(COC(=O)CCNC(=O)c2ccc(Cl)cc2)cc1 | 71.1 µM | > 100 µM
CCOC(=O)CCCc1ccc(/C(C)=N/NC(N)=S)cc1 | 8.39 µM | 25 µM
CC(=O)/C=C(\C)Nc1ccccc1O | 4.45 µM | 5.87 µM
Cc1ccc(NC(=O)Cc2ccc(-c3ccccc3)cc2)nc1 | 86.6 µM | > 100 µM
Cc1nc(-c2ccccc2)sc1C(=O)/C=C/c1ccccc1 | 12.4 µM | 13.6 µM
O=C(CSc1ccc(Cl)cc1)N1CCC(c2nc3ccccc3s2)CC1 | 53.8 µM | 68.3 µM
CCc1ccc(-c2nn(-c3ccccc3)cc2CSC(=N)N)cc1 | 16.5 µM | 20.4 µM
CCOc1cc(/C=C\[N+](=O)[O-])ccc1OCC(=O)Nc1ccccc1C | 29.8 µM | 59 µM
CCCCCc1ccc(S(=O)(=O)NCCc2ccncc2)cc1 | 36.5 µM | 47 µM
CCOC(=O)c1[nH]c2ccc(F)cc2c1NC(=O)CN1CCN(C/C=C/c2ccccc2)CC1 | 28.4 µM | 42.8 µM
O=C(C1CC1)N1CCCC(c2ccc(Cl)cc2)=N1 | 42.3 µM | 63.5 µM
C/C(=N/Nc1ccnc2cc(Cl)ccc12)c1ccc(O)cc1 | 30.1 µM | 36.2 µM

SMILES | IC50 | IC90
Cc1nc(SCC(=O)NCC2CCCO2)c2c3c(sc2n1)CCCC3 (centres undefined) | 23 µM | 25.2 µM
COc1ccc(C(CCN2CCCCC2)c2c(OC)cc(OC)c3c(-c4ccccc4)cc(=O)oc23)cc1 (centres undefined) | 18.9 µM | 26.8 µM
O=[N+]([O-])c1ccc(-c2nc(-c3cccs3)c(-c3cccs3)[nH]2)cc1 | 20.8 µM | > 100 µM
Cc1ccc(C(=O)c2cc(C)sc2NC(=O)CN2CCN(C(=O)c3ccco3)CC2)cc1 | 14.9 µM | 27.4 µM
O=S1(=O)N(CCN2CC=C(c3c[nH]c4cc(F)ccc34)CC2)c2cccc3c2N1CCC3 | 11.2 µM | 12.3 µM
Cc1ccsc1/C=C1\SC(N2CCOCC2)=NC1=O | 23.4 µM | 27 µM
CCOC(=O)C(C)Oc1ccc(OCc2ccccc2)cc1 (centres undefined) | 9.95 µM | 14.6 µM
CCOC(=O)CN[C@H]1CCC2C3CC=C4C[C@@H](O)CC[C@]4(C)C3CC[C@@]21C (some centres undefined) | 3.53 µM | 14.3 µM
CCOc1ccc(-n2cc(-c3ccccc3)c3c(=O)[nH]cnc32)cc1 | 84 µM | > 100 µM
Cc1ccc(Cn2ccsc2=NC(=O)CCl)cc1 | 2.86 µM | 6.73 µM
Cc1nc([N+](=O)[O-])c(Br)n1CC(=O)c1ccc2ccccc2c1 | 11.2 µM | 12.7 µM
Cc1ccccc1N/N=C/c1c(C)nc2ccccn12 | 57.8 µM | 72.5 µM
O=C(OCC(=O)N1CCN(c2ccccc2)CC1)c1cnc(Cl)c(Cl)c1 | 27 µM | 58.1 µM
CC(=O)Nc1ccc(S(=O)(=O)Nc2ccc(N3CCCCC3)cc2)cc1 | 12.4 µM | 15.9 µM
O=C(OCC(=O)N1CCCCC1)c1cc2ccccc2cc1O | 2.95 µM | 3.42 µM
c1ccc(-c2nccc(-c3ccc(-n4cnc5ccccc54)cc3)n2)nc1 | 19 µM | 23.7 µM
CCCCN(C)S(=O)(=O)c1ccc(C(=O)Nc2nnc(-c3ccco3)o2)cc1 | 17.8 µM | 32.7 µM
Cc1cccc(OCc2n(CC(=O)OC3CC(C)CCC3C(C)C)c3ccccc3[n+]2C)c1 (centres undefined) | 8.63 µM | 10.4 µM
COc1ccc(CNc2ncnc3c2[nH]c2cc(OC)c(OC)cc23)cc1 | 80.7 µM | 89.5 µM
O=C1N=C(N2CCC(Cc3ccccc3)CC2)S/C1=C/c1cn[nH]c1-c1ccccc1 | 78.9 µM | > 100 µM
O=C(Nc1ccc(OC(F)(F)F)cc1)c1ccc2c(c1)no[n+]2[O-] | 0.24 µM | 0.32 µM
Clc1ccc(CNc2nc(CN3CCOCC3)nc3scc(-c4ccccc4)c23)cc1 | 33.5 µM | 42.1 µM
COC(=O)CCc1sc(Nc2ccc(Br)cc2)nc1-c1ccc(OC)cc1 | 40.9 µM | > 100 µM

SMILES | IC50 | IC90
COc1cc2c(cc1OC)CN(CCC(=O)c1ccc(Br)cc1)CC2 | 23.4 µM | 26.7 µM
C=CCS/C(N)=N\N=C\c1c(O)ccc2ccccc12 | 35.6 µM | 55.4 µM
Cc1ccc(OCc2cc(C(=O)N(C)Cc3cnc4ccccn34)no2)cc1C | 35.1 µM | > 100 µM
COc1ccc2[nH]c3c(C)c4ccncc4c(C)c3c2c1 | 1.33 µM | 1.68 µM
COc1ccc(N2CCN(C(=O)c3ccc(CNc4c(N5CCOCC5)c(=O)c4=O)cc3)CC2)cc1 | 2.96 µM | 3.24 µM
Cc1ncc(C23CC4CC(CC(C4)C2)C3)[nH]1 | 76.1 µM | 96.7 µM
CN1CCN(c2c(F)cc3c(=O)c(C(=O)O)cn4c3c2OCN4C)CC1 | 0.72 µM | 0.93 µM
Cc1ccc(C2=NN(C)c3nc4ccccc4n3C2)cc1 | 59.3 µM | > 100 µM
CCCCOc1ccc(Br)cc1/C(C)=N/NC1=NCCN1 | 22.4 µM | 31.8 µM
C(=N\NC1=Nc2cccc3cccc1c23)/c1cccnc1 | 92.8 µM | > 100 µM
COC(=O)C1C2c3ccccc3OC1(C)N=c1s/c(=C/c3cnn(C)c3C)c(=O)n12 (centres undefined) | 6.44 µM | 41.1 µM
Cc1ccc(-n2[nH]c(C)c(C=Nc3ccc(S(=O)(=O)Nc4nccs4)cc3)c2=O)c(C)c1 | 6.3 µM | 12 µM
C/C(=N\NC(=S)Nc1cccc(C)c1)c1cccc(N)c1 | 21.6 µM | 23.7 µM
CCOC(=O)c1csc(-c2snnc2C)n1 | 28.4 µM | > 100 µM
O=C1C(SCCO)=C(SCCO)C(=O)c2ccccc21 | 11.3 µM | 12 µM
COc1cnc(-c2ccccn2)nc1Oc1ccc(Cl)c2ccccc12 | 0.67 µM | 1.38 µM
COc1ccccc1C(=O)NNC(=O)C(=O)NCc1ccccc1 | 22.8 µM | 40.6 µM
COc1ccc(CNC[C@@H](CCCCN(C)Cc2ccc(OC)cc2)N2C[C@H](c3ccccc3)N(CCc3ccc(Cl)c(Cl)c3)C(=O)C2=O)cc1 | 10.5 µM | 14 µM
COc1ccc(-c2cc(-c3ccc(OC)cc3)[nH]n2)cc1 |  | > 50 µM
CC1=NN(C(=O)c2ccc(Br)cc2)C(O)(c2ccccc2)C1 (centres undefined) | 42.3 µM | 52.6 µM
O=C(CCS(=O)(=O)c1ccc(F)cc1)Nc1nc(-c2ccccn2)cs1 | 12.8 µM | 29.1 µM
CCCc1cc(-c2nc(N)ncc2-c2ccc3c(c2)OCCCO3)c(O)cc1OC | 54.3 µM | 81 µM
COc1ccc(C2c3[nH]c4ccccc4c3CCN2Cc2cccn2-c2ncccn2)cc1C (centres undefined) | 36.4 µM | 47 µM

SMILES | IC50 | IC90
Fc1nc(F)c(F)c(NCCCNc2c(F)c(F)nc(F)c2F)c1F |  | > 100 µM
O=c1oc(-c2cccs2)nc2c1cnn2-c1ccccc1 |  | > 100 µM
Cc1cc(-c2ccc(Cl)cc2)c2cnn(C(C)C)c2n1 | 38.9 µM | 58.1 µM
N=c1n(Cc2ccc(Cl)cc2)c2ccccc2n1CC(O)COc1ccccc1 (centres undefined) | 22.7 µM | 27.2 µM
Cc1ccc(-c2c[n+](CC(=O)N3c4ccccc4Sc4ccccc43)c3n2CCC3)cc1 | 22.9 µM | 26.1 µM
COc1ccc(NC(=O)CSC2CCCCC2)cc1 | 76.3 µM | > 100 µM
COc1ccc(C2CC(c3cccs3)=Nc3ccccc3S2)cc1 (centres undefined) | 41.9 µM | 50.9 µM
CCC(C)NC(=O)c1c(N)n(/N=C/c2ccccn2)c2nc3ccccc3nc12 (centres undefined) | 13.7 µM | 22.4 µM
CC1CCCN(Cc2c(O)ccc3c(=O)c(-c4nc5ccccc5s4)c(N)oc23)C1 (centres undefined) | 11.7 µM | 21 µM
COc1ccc(-c2cn(Cc3ccc(C(=O)NCc4ccc(C)cc4)cc3)c(C(C)N)n2)cc1 (centres undefined) | 66 µM | 82.4 µM
Cc1ccc(C(=O)OCc2nnc(-c3ccccc3)o2)s1 | 20.4 µM | 32.2 µM
COc1ccc(-c2csc3ncnc(N4CCN(c5ccccc5OC)CC4)c23)cc1 | 22.8 µM | 25.5 µM
CCCn1c(=N)c(C(=O)NCc2ccc3c(c2)OCO3)cc2c(=O)n3cccc(C)c3nc21 | 20.6 µM | 29.1 µM
Cn1cc(C(=O)c2ccc(Cl)cc2)cc1-c1nc2ccccc2n1C | 35.9 µM | 49.5 µM
c1ccc2c(C3=NNC(=NC4CCCCC4)SC3)c[nH]c2c1 | 37.7 µM | 45.4 µM
CC(=O)OC1=Cc2c(ccc3ccc(=O)oc23)OC1(C)C | 47.9 µM | > 100 µM
CCCn1nc(C(=O)NNC(=O)c2ccc(C)c(C)c2)c2ccccc2c1=O | 24.6 µM | 27.9 µM
O=C(NCCC1=CCCCC1)c1c(O)nc2sccn2c1=O | 66 µM | > 100 µM
Cc1ccc(NC(=O)COc2ccc(-n3ccnc3)cc2)cc1Cl | 44.5 µM | 58.7 µM
Cc1cccc(NS(=O)(=O)c2ccc(C(=O)N3CCN(c4ccccc4O)CC3)cc2)c1C | 85.5 µM | > 100 µM
Clc1ccc(-c2cc3ccccc3nc2N2CCCC2)cc1 | 71.6 µM | > 100 µM
Cn1nc(-c2ccccc2F)c2cc(C(=O)Nc3ccc4c(c3)OCCO4)sc21 | 41.7 µM | > 100 µM
